Test results taken from US8853238B2, “Fused heterocyclic compound and use thereof for pest control” (Sumitomo Chemical Company, Limited, priority 2010, dated 2014).

Legend:
Format in all cases: in vivo
[1] = system: Aphis gossypii; experiment: Test Example 3: drench at foot of cucumber seedling, then inoculation with Aphis gossypii; conditions: soil, 144 h, read-out: Control value
[2] = system: Aphis gossypii; experiment: Test Example 2: root immersion of cucumber seedling, then inoculation with Aphis gossypii; conditions: 168 h; 500 ppm active ingredient; cucumber root part immersed in 5 ml; 30 Aphis gossypii inoculated one day after treatment; examined after further seven days
Method: A root part of a cucumber seedling (the first true leaf stage) from which soil had been washed off was immersed in 5 ml of each of the diluted solutions, and one day after treatment, on the cucumber leaf surface was inoculated with 30 Aphis gossypii (whole stage). After further seven days, the number of insect of living Aphis gossypii parasitized on the leaves of the cucumber was examined, and a control value was calculated according to the following equation: Control value (%)={1−(Cb×Tai)/(Cai×Tb))×100 wherein symbols represent as follows: Cb: the number of insects in a non-treated section before treatment, Cai: the number of insects in a non-treated section in observation, Tb: the number of insects in a treated-section before treatment, Tai: the number of insects in a treated-section in observation; wherein the non-treated section represents a section where the test diluted solution prepared by diluting the formulation without the present compound in Formulation Example 5 with the same amount of water as in the treated-section was used.

[3] = system: Nilaparvata lugens; experiment: Test Example 5: drench at foot of rice seedling, release of Nilaparvata lugens larvae; conditions: soil, 144 h; 500 ppm active ingredient; rice seedling drenched at its foot with 5 ml, kept 7 days; twenty third-fourth instar larvae of Nilaparvata lugens; examined after 6 days
Method: On the other hand, a rice seedling (2 weeks after sowing, the second leaf stage) planted in a plastic cup was drenched at its foot with 5 ml of each of the diluted solutions, and kept in a greenhouse of 25° C. for 7 days. Twenty third-fourth instar larvae of Nilaparvata lugens were released, and further kept in the greenhouse for 6 days, then the number of insect of living Nilaparvata lugens parasitized on the rice was examined, and a control value was calculated according to the following equation: Control value (%)={1−(Cb×Tai)/(Cai×Tb))×100 wherein symbols represent as follows: Cb: the number of insects in a non-treated section before treatment, Cai: the number of insects in a non-treated section in observation, Tb: the number of insects in a treated-section before treatment, Tai: the number of insects in a treated-section in observation; wherein the non-treated section represents a section where the test diluted solution prepared by diluting the formulation without the present compound in Formulation Example 5 with the same amount of water as in the treated-section was used.

[4] = system: Bemisia tabaci; experiment: Test Example 6: spray on tomato seedling with Bemisia tabaci instar larvae; conditions: 168 h; 500 ppm active ingredient; 20 ml/cup sprayed on tomato seedling with hatched Bemisia tabaci instar larvae; after 7 days at 25° C.
Method: On the other hand, Bemisia tabaci adult was released on a tomato seedling (the third true leaf stage) planted in a polyethylene cup, and made to lay eggs for about 72 hours. The tomato seedling was kept in a greenhouse for 8 days. When instar larvae hatched from the eggs, the above test spray solution was sprayed in the amount of 20 ml/cup. The cup was kept in a greenhouse at 25° C. After the keeping for 7 days, the number of surviving instar larvae on the tomato leaves was examined, and a control value was calculated according to the following equation: Control value (%)={1−(Cb×Tai)/(Cai×Tb))×100 wherein symbols represent as follows: Cb: the number of insects in a non-treated section before treatment, Cai: the number of insects in a non-treated section in observation, Tb: the number of insects in a treated-section before treatment, Tai: the number of insects in a treated-section in observation; wherein the non-treated section represents a section where the test spray solution prepared by diluting the formulation without the present compound in Formulation Example 5 with the same amount of water as in the treated-section was sprayed.

[5] = system: Aphis gossypii; experiment: Test Example 1: spray on cucumber seedling inoculated with Aphis gossypii; conditions: topical, 144 h; 500 ppm active ingredient (Formulation Example 5 diluted with water); 20 ml sprayed on cucumber seedling with about 30 Aphis gossypii; six days after spraying
Method: On the other hand, on a cucumber seedling (the first true leaf stage) planted in a plastic cup was inoculated with about 30 Aphis gossypii, and leaving it for a day. Twenty ml of each of the above test spray solutions was sprayed on this seedling. Six days after spraying, the number of the surviving Aphis gossypii parasitized on the leaves of the cucumber was examined, and a control value was calculated according to the following equation: Control value (%)={1−(Cb×Tai)/(Cai×Tb))×100 wherein symbols represent as follows: Cb: the number of insects in a non-treated section before treatment, Cai: the number of insects in a non-treated section in observation, Tb: the number of insects in a treated-section before treatment, Tai: the number of insects in a treated-section in observation; wherein the non-treated section represents a section where the test spray solution prepared by diluting the formulation without the present compound in Formulation Example 5 with the same amount of water as in the treated-section was sprayed.

[6] = system: Adoxophyes orana fasciata; experiment: Test Example 8: spray on apple tree, release of Adoxophyes orana fasciata; conditions: in Malus domestica, 168 h; 500 ppm active ingredient; apple tree sprayed with 20 mL/cup; 60 first-instar Adoxophyes orana fasciata; after 7 days; read-out: Death rate
Method: On the other hand, an apple tree was planted in a plastic cup, and grown until the seventh-eighth leaf was spread. The apple tree was sprayed with 20 mL/cup of each of the test spray solution. After the test solution was dried, 60 first-instar Adoxophyes orana fasciata were released, and the cup was covered with a plastic cup upside-down which the bottom was cut off and a filter paper was put thereon. After 7 days, the number of living insects was counted, and a death rate was calculated according to the following equation: Death rate (%)=(Number of dead insects/Number of tested insects)×100

[7] = system: Nilaparvata lugens; experiment: Test Example 4: spray on rice seedling, release of Nilaparvata lugens larvae; conditions: 144 h; 500 ppm active ingredient; rice seedling sprayed with 10 ml; third-fourth instar larvae of Nilaparvata lugens; after 6 days at 25° C.; read-out: Control value
[8] = 500 ppm active ingredient, cucumber seedling drenched at its foot with 5 ml, kept 7 days at 25° C., 30 Aphis gossypii inoculated, examined after 6 days

Measured: pest or weed control at 500 ppm

CC[S+]([O-])c1c(Cl)cccc1-c1nc2cc(C(F)(F)F)cnc2n1C (stereo not drawn) [Present Compound 89, 2-(3-chloro-2-ethylsulfinylphenyl)-3-methyl-6-trifluoromethyl-3H-imidazo[4,5-b]pyridine]
≥ 90%: [1]; [8] | [2] | [3]

CCS(=O)(=O)c1ccccc1-c1nc2cc(S(C)(=O)=O)cnc2n1C [compound 254, 2-(2-ethylsulfonylphenyl)-6-methylsulfonyl3-methyl-3H-imidazo[4,5-b]pyridine]
≥ 90%: [1]; [8] | [2]

CCS(=O)(=O)c1cc(C(F)(F)F)ccc1-c1nc2cc(C(F)(F)F)cnc2[nH]1 [compound 345, 2-(2-ethylsulfonyl-4-trifluoromethyl-phenyl)-6-trifluoromethyl-3H-imidazo[4,5-b]pyridine]
≥ 90%: [1]; [8] | [4] | [5] | [3] | [6]

CCS(=O)(=O)c1ccccc1-c1nc2cc(C(F)(F)C(F)(F)C(F)(F)F)cnc2n1C [Present Compound 130, 2-(2-ethylsulfonylphenyl)-6-heptafluoropropyl-3-methyl-3H-imidazo[4,5-b]pyridine]
≥ 90%: [1]; Aphis gossypii | [3]

CCS(=O)(=O)c1cc(-c2ncccn2)ccc1-c1nc2cc(C(F)(F)F)cnc2n1C [compound 333, 2-[2-ethylsulfonyl-4-(pyrimidine-2-yl)-phenyl)-3-methyl-6-trifluoromethyl-3H-imidazo[4,5-b]pyridine]
≥ 90%: [1]; [8] | [4] | [2] | [5]

CCS(=O)(=O)c1c(Cl)cccc1-c1nc2cc(C(F)(F)F)cnc2n1C [Present Compound 90, 2-(3-chloro-2-ethylsulfonylphenyl)-3-methyl-6-trifluoromethyl-3H-imidazo[4,5-b]pyridine]
≥ 90%: [1]; [8] | [3]

CCS(=O)(=O)c1cc(C(F)(F)F)ccc1-c1nc2cc(S(=O)(=O)C(F)(F)F)cnc2n1C [compound 302, 2-(2-ethylsulfonyl-4-trifluoromethylphenyl)-3-methyl-6-trifluoromethylsulfonyl-3H-imidazo[4,5-b]pyridine]
≥ 90%: [1]; [8]

CCSc1ccccc1-c1nc2cc(C(F)(F)C(F)(F)F)cnc2n1C [Present Compound 55, 2-(2-ethylsulfanylphenyl)-3-methyl-6-pentafluoroethyl-3H-imidazo[4,5-b]pyridine]
≥ 90%: [1]; [8] | [4] | [2] | [7] | [5] | [3]

CCSc1ccccc1-c1nc2cc(SC(F)(F)F)cnc2n1C [Present Compound 161, 2-(2-ethylsulfanyl-phenyl)-3-methyl-6-trifluoromethylsulfanyl-3H-imidazo[4,5-b]pyridine]
≥ 90%: [4] | [7] | [5] | [6]

CCS(=O)(=O)c1cc(C(F)(F)F)ccc1-c1nc2cc(SC(F)(F)F)cnc2n1C [compound 306, 2-(2-ethylsulfonyl-4-trifluoromethylphenyl)-3-methyl-6-trifluoromethylsulfanyl-3H-imidazo[4,5-b]pyridine]
≥ 90%: [1]; [8] | [2] | [7] | [3]
